Experimental data published in the NIST ThermoML archive (doi:10.1021/acs.jced.5b00075).
Numbers after ± are expanded uncertainties.

Experiments:
[1] = Molar enthalpy of transition or fusion; conditions: Crystal; DSC
[2] = Crystal; DTA
[3] = molar heat capacity at constant pressure; conditions: 101.33 kPa, Small sample (50 mg) DSC

C(=C\c1ccccc1)/CN1CCN(C(c2ccccc2)c2ccccc2)CC1 [cinnarizine]
Molar enthalpy of transition or fusion [1]: 8.87 ± 1.03 kcal/mol
Normal melting temperature [2]: 120.83 ± 0.5 °C
molar heat capacity at constant pressure ([3]; 305 K, Crystal): 307.19 ± 37 J/K/mol
molar heat capacity at constant pressure ([3]; 310 K, Crystal): 314.6 ± 37 J/K/mol
molar heat capacity at constant pressure ([3]; 315 K, Crystal): 322.02 ± 37 J/K/mol
molar heat capacity at constant pressure ([3]; 320 K, Crystal): 329.43 ± 37 J/K/mol
molar heat capacity at constant pressure ([3]; 325 K, Crystal): 336.84 ± 38 J/K/mol
molar heat capacity at constant pressure ([3]; 330 K, Crystal): 344.26 ± 38 J/K/mol
molar heat capacity at constant pressure ([3]; 335 K, Crystal): 351.67 ± 38 J/K/mol
molar heat capacity at constant pressure ([3]; 340 K, Crystal): 359.09 ± 38 J/K/mol
molar heat capacity at constant pressure ([3]; 345 K, Crystal): 366.5 ± 38 J/K/mol
molar heat capacity at constant pressure ([3]; 350 K, Crystal): 373.91 ± 38 J/K/mol
molar heat capacity at constant pressure ([3]; 355 K, Crystal): 381.33 ± 38 J/K/mol
molar heat capacity at constant pressure ([3]; 360 K, Crystal): 388.74 ± 38 J/K/mol
molar heat capacity at constant pressure ([3]; 365 K, Crystal): 396.15 ± 38 J/K/mol
molar heat capacity at constant pressure ([3]; 370 K, Crystal): 403.57 ± 38 J/K/mol
molar heat capacity at constant pressure ([3]; 375 K, Crystal): 410.98 ± 38 J/K/mol
molar heat capacity at constant pressure ([3]; 380 K, Crystal): 418.4 ± 38 J/K/mol
molar heat capacity at constant pressure ([3]; 385 K, Crystal): 425.81 ± 38 J/K/mol
molar heat capacity at constant pressure ([3]; 400 K, Liquid): 558.85 ± 35 J/K/mol
molar heat capacity at constant pressure ([3]; 405 K, Liquid): 563.97 ± 36 J/K/mol
molar heat capacity at constant pressure ([3]; 410 K, Liquid): 569.09 ± 36 J/K/mol
molar heat capacity at constant pressure ([3]; 415 K, Liquid): 574.21 ± 36 J/K/mol
